These results are taken from US20220135567A1, “TYK2 PSEUDOKINASE LIGANDS” (Ventyx Biosciences, Inc., priority 2019, published 2022).

The test system of this test is IFN-a/Jak1Tyk2. Kind of test: Co-stimulation assay in lysed whole blood: IFNa (JAK1/TYK2) stimulated STAT1 phosphorylation. The class given is cell-based. The settings on record: 20 min, lysed human whole blood, IFNa 100 ng/mL + GM-CSF 10 ng/mL, pSTAT1 by flow cytometry. The method, then:
Dilute RBC lysis buffer to 1× in distilled water. Add 2 mL blood to 38 mL of 1×RBC-lysis buffer. Incubate for 15 mins at RT, in dark. Spin at 300 g, 5 mins, to collect the pellet. Re-lyse if necessary. Re-suspend pellet in 5 mL of cRPMI.
Aliquot 80 μL of lysed human blood in to wells of 96 deep-well plate. Add 10 μl of (10× conc.) of different concentrations of compounds to all wells except controls (unstained and unstimulated) and mix it with the help of 100 uL multichannel. Add 10 uL of RPMI media in controls. For dilution of compounds and dilution range please refer Appendix. Incubate on water bath or CO2 incubator for 1 hour at 37° C. Add 10 μl of (10× conc.) of cytokine mix (GM-CSF and IFNa) (final conc. 10 ng/mL of GM-CSF and 100 ng/mL of IFNa) to each well except unstimulated and unstained controls and incubate further for 20 minutes on water bath at 37° C.
Add 900 μL of prewarmed 1× Fix/Lyse solution (Appendix) and mix it properly using 1000 μl multichannel, incubate further on water bath at 37° C. for 10 minutes (which includes time of addition). Centrifuge at 800×g for 5 minutes at 40° C.; remove 900 uL of supernatant and add 900 μL of 1×PBS. Centrifuge at 800×g for 5 minutes at 40° C., remove 900 μL of supernatant. Wash one more time with 900 μL of PBS (optional) and resuspend pellets in 100 uL of PBS.
Disrupt the pellet by gentle tapping and resuspend in 1000 μL of BD Phosflow Perm Buffer III and incubate plate on ice for 30 minutes. Centrifuge plate at 800×g for 5 minutes at 40° C. Wash two more times with 1000 μL of BD Pharmingen Stain Buffer.
Disrupt the pellet by gentle tapping. Resuspend pellets in 100 uL of Stain Buffer and add 5 μL of pSTAT5_AF488 Ab and 5 uL of pSTAT1_PE in all wells except unstained control and mix properly using 200 μl multichannel, incubate overnight at […]. Add 900 μL of wash buffer and centrifuge at 1800 rpm for 3 minutes at […]. Wash one more time with 1000 μL of BD Pharmingen Stain Buffer. Finally resuspend the pellet in 300 uL of BD Pharmingen Stain Buffer. Transfer the cells to 96-well v-bottom plate and acquire the cells in Beckman Coulter CytExpert. Acquiring cells in Flow Cytometer: Keep the threshold value to 250 and cell concentration should not exceed 100-500 cells/μL. Acquire at least 5,000-10,000 cells.
Cytokine dilution: 1) GM-CSF Stock at 100 ug/mL. Prepare an intermediate dilution of 1 ug/mL by adding 2 uL of stock into 198 uL of cRPMI. Further dilute to 100 ng/mL by adding 100 uL of the intermediate stock to 900 uL of cRPMI. 2) IFNa Stock at 200 ug/mL. Dilute IFNa stock 1:200 by adding 5 uL of stock into the 1000 uL of 100 ng/mL GM-CSF working stock as above to give a combined working stock of 1000 ng/mL of IFNa and 100 ng/mL GM-CSF (10×). Keep it on ice until used.
Lyse/Fix buffer preparation: Dilute 5× Lyse/Fix buffer to 1× using MQ water and keep at 37° C. until used.
BD Phosflow perm buffer III: Keep on ice/fridge.
As for `CNc1cc(Nc2cccn(-c3ccc(OC)nn3)c2=O)nc2c(C(=O)NCC(F)(F)F)cnn12` [Compound 67, 5-((1-(6-methoxypyridazin-3-yl)-2-oxo-1,2-dihydropyridin-3-yl)amino)-7-(methylamino)-N-(2,2,2-trifluoroethyl)pyrazolo[1,5-a]pyrimidine-3-carboxamide], the IC50 was in the range of 1000 to 10000 nM. As for `CNc1cc(Nc2cccc3c2OCCO3)nc2c(C(=O)NC3CCOC3)cnn12` (stereo not shown) [Compound 68, 5-((2,3-dihydrobenzo[b][1,4]dioxin-5-yl)amino)-7-(methylamino)-N-(tetrahydrofuran-3-yl)pyrazolo[1,5-a]pyrimidine-3-carboxamide], the figure is 100 to 1000 nM; as for `CNc1cc(Nc2ccnn2CCO)nc2c(C(=O)NC3CC3)cnn12` [Compound 69, N-cyclopropyl-5-((1-(2-hydroxyethyl)-1H-pyrazol-5-yl)amino)-7-(methylamino)pyrazolo[1,5-a]pyrimidine-3-carboxamide], 1000 to 10000 nM. In the case of `CNc1cc(Nc2ccnn2CC(F)(F)F)nc2c(C(=O)NC3CC3)cnn12` [Compound 70, N-cyclopropyl-7-(methylamino)-5-((1-(2,2,2-trifluoroethyl)-1H-pyrazol-5-yl)amino)pyrazolo[1,5-a]pyrimidine-3-carboxamide], the IC50 fell in the range of 100 to 1000 nM. The result for `CNC(=O)c1cnn2c(NC)cc(Nc3cc(F)cc(F)c3OC)nc12` [Compound 71, 5-((3,5-difluoro-2-methoxyphenyl)amino)-N-methyl-7-(methylamino)pyrazolo[1,5-a]pyrimidine-3-carboxamide] reads 1000 to 10000 nM. As for `CCNc1cc(Nc2cc(C)cc(C)c2)nc2c(C(N)=O)cnn12` [Compound 72, 5-((3,5-dimethylphenyl)amino)-7-(ethylamino)pyrazolo[1,5-a]pyrimidine-3-carboxamide], the figure is 100 to 1000 nM; as for `CNc1cc(Nc2cc(F)cc(F)c2OC)nc2c(C(=O)NC3CC3F)cnn12` (stereo not shown) [Compound 73, 5-((3,5-difluoro-2-methoxyphenyl)amino)-N-(2-fluorocyclopropyl)-7-(methylamino)pyrazolo[1,5-a]pyrimidine-3-carboxamide], less than 100 nM. Take `CNc1cc(Nc2cc(F)cc(F)c2OC)nc2c(C(N)=O)cnn12` [Compound 74, 5-((3,5-difluoro-2-methoxyphenyl)amino)-7-(methylamino)pyrazolo[1,5-a]pyrimidine-3-carboxamide]: the IC50 is greater than 300 nM. As for `CNc1cc(Nc2cccc3c2OCCO3)nc2c(C(=O)NC3CC(C)(O)C3)cnn12` (stereo not shown) [Compound 75, 5-((2,3-dihydrobenzo[b][1,4]dioxin-5-yl)amino)-N-(3-hydroxy-3-methylcyclobutyl)-7-(methylamino)pyrazolo[1,5-a]pyrimidine-3-carboxamide], the figure is less than 100 nM; as for `[2H]C([2H])([2H])Nc1cc(Nc2cc(F)cc3c2OCCO3)nc2c(C(N)=O)cnn12` [Compound 76, 5-((7-fluoro-2,3-dihydrobenzo[b][1,4]dioxin-5-yl)amino)-7-((methyl-d3)amino)pyrazolo[1,5-a]pyrimidine-3-carboxamide], less than 100 nM; as for `[2H]C([2H])([2H])Nc1cc(Nc2cc(Cl)cc3c2OCCO3)nc2c(C(=O)NC3CC3)cnn12` [Compound 77, 5-((7-chloro-2,3-dihydrobenzo[b][1,4]dioxin-5-yl)amino)-N-cyclopropyl-7-((methyl-d3)amino)pyrazolo[1,5-a]pyrimidine-3-carboxamide], less than 100 nM. Turning to `[2H]C([2H])([2H])NC(=O)c1cnn2c(NC([2H])([2H])[2H])cc(Nc3cc(F)cc4c3OCCO4)nc12` [Compound 78, 5-((7-fluoro-2,3-dihydrobenzo[b][1,4]dioxin-5-yl)amino)-N-(methyl-d3)-7-((methyl-d3)amino)pyrazolo[1,5-a]pyrimidine-3-carboxamide], the IC50 was in the range of 100 to 1000 nM. As for `[2H]C([2H])([2H])Nc1cc(Nc2cc(F)cc3c2OCCO3)nc2c(C(=O)N[C@H]3C[C@H]3F)cnn12` [Compound 79, 5-((7-fluoro-2,3-dihydrobenzo[b][1,4]dioxin-5-yl)amino)-N-((1S,2R)-2-fluorocyclopropyl)-7-((methyl-d3)amino)pyrazolo[1,5-a]pyrimidine-3-carboxamide], the figure is less than 100 nM. Regarding `[2H]C([2H])([2H])Nc1cc(Nc2cc(F)cc3c2OCCO3)nc2c(C(=O)N[C@@H]3C[C@@H]3F)cnn12` [Compound 80, 5-((7-fluoro-2,3-dihydrobenzo[b][1,4]dioxin-5-yl)amino)-N-((1R,2S)-2-fluorocyclopropyl)-7-((methyl-d3)amino)pyrazolo[1,5-a]pyrimidine-3-carboxamide], the IC50 is less than 100 nM. As for `CNc1cc(Nc2cccc3c2CCCO3)nc2c(C(=O)NCC(C)(C)CO)cnn12` [Compound 81, 5-(chroman-5-ylamino)-N-(3-hydroxy-2,2-dimethylpropyl)-7-(methylamino)pyrazolo[1,5-a]pyrimidine-3-carboxamide], the figure is 100 to 1000 nM.

On to `CNc1cc(Nc2cccc3c2CCCO3)nc2c(C(=O)NC3CC3)cnn12` [Compound 82, 5-(chroman-5-ylamino)-N-cyclopropyl-7-(methylamino)pyrazolo[1,5-a]pyrimidine-3-carboxamide], for which the IC50 was 100 to 1000 nM. `[2H]C([2H])([2H])n1cccc(Nc2cc(NC)n3ncc(C(=O)N[C@H]4C[C@H]4F)c3n2)c1=O` [Compound 83, N-((1S,2R)-2-fluorocyclopropyl)-5-((1-(methyl-d3)-2-oxo-1,2-dihydropyridin-3-yl)amino)-7-(methylamino)pyrazolo[1,5-a]pyrimidine-3-carboxamide]: the IC50 lay within 100 to 1000 nM. The result for `[2H]C([2H])([2H])Nc1cc(Nc2cccc3c2OCCO3)nc2c(C(=O)NCC(C)(C)CO)cnn12` [Compound 84, 5-((2,3-dihydrobenzo[b][1,4]dioxin-5-yl)amino)-N-(3-hydroxy-2,2-dimethylpropyl)-7-((methyl-d3)amino)pyrazolo[1,5-a]pyrimidine-3-carboxamide] reads less than 100 nM. Regarding `[2H]C([2H])([2H])n1cccc(Nc2cc(NC)n3ncc(C(=O)N[C@@H]4C[C@@H]4F)c3n2)c1=O` [Compound 85, N-((1R,2S)-2-fluorocyclopropyl)-5-((1-(methyl-d3)-2-oxo-1,2-dihydropyridin-3-yl)amino)-7-(methylamino)pyrazolo[1,5-a]pyrimidine-3-carboxamide], the IC50 was less than 100 nM. The result for `CNc1cc(Nc2cccn(C)c2=O)nc2c(C(=O)NC3CC(O)C3)cnn12` (stereo not shown) [Compound 86, N-(3-hydroxycyclobutyl)-5-((1-methyl-2-oxo-1,2-dihydropyridin-3-yl)amino)-7-(methylamino)pyrazolo[1,5-a]pyrimidine-3-carboxamide] reads greater than 3000 nM; that for `CNc1cc(Nc2cccn(C)c2=O)nc2c(C(=O)NC3CC(C#N)C3)cnn12` (stereo not shown) [Compound 87, N-(3-cyanocyclobutyl)-5-((1-methyl-2-oxo-1,2-dihydropyridin-3-yl)amino)-7-(methylamino)pyrazolo[1,5-a]pyrimidine-3-carboxamide], 100 to 1000 nM; that for `CNc1cc(Nc2cccn(C)c2=O)nc2c(C(=O)NC3CC(OC)C3)cnn12` (stereo not shown) [Compound 88, N-(3-methoxycyclobutyl)-5-((1-methyl-2-oxo-1,2-dihydropyridin-3-yl)amino)-7-(methylamino)pyrazolo[1,5-a]pyrimidine-3-carboxamide], greater than 3000 nM.
